Data taken from patent US20100173853A1, “COMBINATION OF MONOSACCHARIDES WITH ASCORBIC ACID AND USE THEREOF” (L'OREAL, priority 2008, published 2010).
Entries after “also recorded” stand apart in the source; their conditions may differ.

Tests used:
[1] = tested on: keratinocytes (HaCat line); test: Proliferation of keratinocytes in medium deficient in growth factors (Cyquant, Nile red, XTT probes); format: cell-based; conditions: HaCat keratinocytes in medium depleted in growth factors
Description: The keratinocytes (HaCat line) are cultured under two conditions: whole defined culture medium (standard condition) and culture medium deficient in growth factors. This deficient medium gives rise to a controlled delay in cell proliferation. Under these conditions, it is then possible to measure the effects of compounds capable of compensating for the deficiency in growth factors of the culture medium and thus of relaunching the cell multiplication and/or of stimulating cell metabolism.
The keratinocyte proliferation is measured by means of three markers on the same cell population: the level of DNA, which is proportional to the number of cells (Cyquant probe), the level of constituent polar lipids of cell membranes (Nile red probe) and the mitochondrial respiration, which reflects the general cell metabolism (XTT probe).

type I procollagen = test: Synthesis of procollagen 1 in reconstructed skin (indirect immunofluorescence); format: cell-based, human
Collagen VI Col6A1 = test: Expression of collagen VI alpha 1-chain by dermal fibroblasts (RNA); format: cell-based; conditions: human dermal fibroblasts; Rhamnose 1 mM, Vitamin C 50 μM, alone or associated; D3 or D5 not stated
Description: (§1) This example describes the synergic effect of the association of vitamin C with L-rhamnose on the expression of the alpha 1-chain of collagens VI and XII of the extracellular matrix.
(§2) Human dermal fibroblasts (used at the ninth passage) are obtained from mammary or abdominal surgeries. The culture medium implemented is DMEM, supplemented with: • fetal calf serum (FCS), 10% • L-Glutamine, 2 mM (Invitrogen 25030024), • Penicillin (50 UI/mL), streptomycin (50 μg/mL), (Invitrogen 15070063), • Sodium pyruvate (Invitrogen 11360039), and • Non essential amino acids (Invitrogen 11140035).
(§3) Fibroblasts are cultured (D0) in supplemented DMEM medium as described above, incubated at 37° C. znd 5% CO2 in an atmosphere saturated with water. After adhesion of the cells (D1), the culture medium is removed and replaced with medium containing vitamin C, L-rhamnose or their association. The different stimulation conditions (vitamin C 25 μM, 50 μM, Rhamnose 1 mM and the different associations) were performed in triplicate (12 well dish). Studies of the expression of the different collagenes were performed on D3 and D5.
(§4) For each condition and at each time (D3 and D5), the supernatants are removed and the cell lawns are lysed. […]
(§5) RNAs are then quantified in fluorescence according to the Ribogreen protocol (Quan-it, Ribogreen RNA assay kit, invitrogen R11490) and reading with Tecan Safire. […]

Collagen XII Cola12A1 = test: Expression of collagen XII alpha 1-chain by dermal fibroblasts (RNA); format: cell-based; conditions: human dermal fibroblasts; Rhamnose 1 mM, Vitamin C 50 μM, alone or associated; D3 or D5 not stated
Description: as §1, §2, §3, §4, §5

SMILES	keratinocyte proliferation (efficacy) ([1]; 500 μM)	level of DNA (Cyquant) ([1]; 1 mM, vs untreated control)	level of polar lipids (Nile red signal) ([1]; 1 mM, vs untreated control)	mitochondrial respiration (XTT signal) ([1]; 1 mM, vs untreated control)	procollagen 1 synthesis (green fluorescence) vs control skin (type I procollagen; 1 mM, 120 hours)	procollagen 1 synthesis (type I procollagen; 5 mM)	intensity of the biosynthesis of Collagen VI (Col6A1) compared to the control that is at 100 (Collagen VI Col6A1)	intensity of the biosynthesis of Collagen XII (Cola12A1) compared to the control that is at 100 (Collagen XII Cola12A1)
C[C@H](O)[C@H](O)[C@@H](O)[C@@H](O)C=O [Rhamnose, L-rhamnose]	already show efficacy	significantly increased	significantly increased	significantly increased	stimulation; also recorded: marked increase	stimulation	109	115
O=C1O[C@H]([C@@H](O)CO)C(O)=C1O [Vitamin C, ascorbic acid]							154	124
